Assay results from patent publication US10016498B2, “D-amino acid derivative-modified peptidoglycan and methods of use thereof” (priority 2012, dated 2018).

Legend:
L. monocytogenes PG [1] = test: alkDala labeling of newly synthesized PG: growth phase, vancomycin-BODIPY colocalization, antibiotic treatment; format: cell-based
[2] = tested on: peptidoglycan of gram-positive bacteria; test: Incorporation of cyclooctyne D-amino acids into peptidoglycan, azido-PEG3-carboxyrhodamine labeling, flow cytometry and microscopy; format: cell-based, L. monocytogenes
Method: With all three amino acids in hand, their incorporation into the peptidoglycan of gram-positive bacteria was tested. The bacteria were grown for one-doubling time in the presence of 5 mM unnatural amino acids 30 to 32. The cells were then washed to remove excess amino acid and labeled with 20 μM of the commercially available azido-PEG3-carboxyrhodamine. This fluorophore efficiently labels terminal-alkyne-tagged peptidoglycan under copper-click conditions. The cells were then washed to remove excess probe, fixed, and studied by flow-cytometry and microscopy.
To further confirm that peptidoglycan was being labeled, a competition experiment was performed.

[3] = tested on: bacteria (E. coli, Bacillus subtilis, L. monocytogenes, Mycobacterium tuberculosis, Streptomyces coelicolor, Corynebacterium glutamicum); format: cell-based
L. monocytogenes = format: cell-based
E. coli PG = format: cell-based, Escherchia coli
L. monocytogenes PG [4] = test: HPLC and mass spectrometry of muropeptides from purified PG; format: cell-based
Text: Having ruled out other potential sites of D-alanine derivative labeling, direct evidence of its incorporation into PG was sought. PG comprises a repeating disaccharide to which is conjugated a short peptide, termed the stem peptide (FIG. 1A). Although newly synthesized PG stem peptide usually terminates in D-alanine-D-alanine, diverse bacterial phyla produce and incorporate D-amino acids other than D-alanine into those positions. (17, 18) The process is flexible; various natural and unnatural D-amino acids appear to incorporate, albeit at varying efficiencies. […] After digesting the PG with muramidase, HPLC was used to detect muropeptides by absorbance at either 204 nm (to visualize all species) or 500 nm (to identify fluorophore-containing fragments). […] PG samples from E. coli incubated in azDala alone were analyzed; and it was determined that the fraction of D-alanine that had been replaced with the synthetic analog was roughly 50% of the tetrapeptide pool and 15% of the total muropeptide population.
FIGS. 2A-D. AlkDala incorporates into L. monocytogenes PG. […] Absorbance at 204 nm, blue, and at 500 nm, red, are shown. […] The most abundant peaks detected at 500 nm were collected and subjected to analysis by mass spectrometry, (D), to identify the chemical structure of the alkDala-containing muropeptides conjugated to azido-fluor 488, (B).

[5] = tested on: L. monocytogenes in J774 macrophages; test: alkDala labeling of intracellular bacteria during J774 macrophage infection; format: cell-based; settings: 50 mM alkDala, azido-fluor 488

C[C@@H]1O[C@@H]1P(=O)(O)O [fosfomycin]
effect of antibiotic treatment on alkDala labeling (L. monocytogenes PG [1]): completely abrogated

C#CC[C@@H](N)C(=O)O [alkDala, R-propargylglycine]
labeling of listeria lacking PBP5 versus wild type [2]: enhanced labeling over wild type
cell surface labeling by microscopy [3]: Clear cell surface labeling of all species tested
labeling of dal- dat- D-alanine auxotroph compared to wildtype (L. monocytogenes): labeled more strongly
position of insertion in the PG stem peptide (E. coli PG): fourth position
position of insertion in the PG stem peptide (L. monocytogenes PG [4]; L. monocytogenes): fifth position
change of PG structure compared to D-alanine incubation (L. monocytogenes PG [4]; long periods of incubation): did not appreciably change PG structure
colocalization of signal with vancomycin-BODIPY, a marker of nascent PG (L. monocytogenes PG [1]; one generation, azido-fluor 545): colocalized
site of labeling of intracellular L. monocytogenes ([5]; longer pulse (3.5 hrs)): at the septa and poles
site of labeling of intracellular L. monocytogenes ([5]; short pulse (last 30 minutes)): labeled more at the septa

C[C@@H](O)[C@H]1C(=O)N2C(C(=O)O)=C(S[C@@H]3CN[C@H](C(=O)N(C)C)C3)[C@H](C)[C@H]12 [meropenem]
effect of antibiotic treatment on alkDala labeling (L. monocytogenes PG [1]): much weaker effect

penicillin
effect of antibiotic treatment on alkDala labeling (L. monocytogenes PG [1]): much weaker effect
